Results as given in patent US20130137739A1, “SOLID DISPERSION COMPRISING TRIAZOLE COMPOUND” (Astellas Pharma, Inc., priority 2010, published 2013).
Values after ≈ are worked out from the molar mass of the structure shown. Like-named read-outs stand apart in the source and are kept apart here.

Legend:
[1] = Solubility of Compound A in water and organic solvents; format: physicochemical
[2] = Glass transition point (Tg) by DSC; format: physicochemical; details: Compound A itself
Method: The glass transition point of a solid dispersion can be obtained by subjecting the solid dispersion to calorimetric measurements using DSC and plotting a curve of changes in the amount of heat. In more practical terms a sample of about 10 mg is weighed out onto an aluminum pan and calorimetry is carried out for temperatures from 0° C. and 150° C. with a rate of temperature increase of 5° C. per minute. In the process of heating the sample heat is absorbed or generated at the glass transition point and, as a result, the baseline of the calorimetric curve will shift downward. Extended lines are drawn for the two baselines, namely the original baseline and the shifted baseline, and the glass transition temperature is obtained from the intersection point of the ½ line between the two baselines and the calorimetric curve.
Particles of the solid dispersion (about 10 mg) of each example and comparative example were weighed out on an aluminum pan and calorimetric measurements were made at temperatures between 0° C. to 150° C. with a rate of temperature increase of 5° C. per minute. Heat was absorbed or generated at the glass transition point in the course of heating the sample and, as a result, the baseline of the calorimetric curve shifted downward. […]

solubility ([1]; acetone, organic solvent or mixture, room temperature, read-out: solubility in organic solvent: acetone): 82.2 mg/mL (≈ 264 mM) | solubility ([1]; ethanol, organic solvent or mixture, room temperature, read-out: solubility in organic solvent: ethanol): 15.9 mg/mL (≈ 51.1 mM) | solubility ([1]; polyethylene glycol, organic solvent or mixture, room temperature, read-out: solubility in organic solvent: polyethylene glycol): 6.3 mg/mL (≈ 20.2 mM) | solubility ([1]; water, 37° C., read-out: solubility in water): 0.0107 mg/mL (≈ 0.0344 mM) | glass transition point of Compound A [2]: 4 °C
SMILES: COc1ccc(-c2nc(OC)nn2-c2ccc(OC)cc2)cc1 [Compound A, 3-methoxy-1,5-bis(4-methoxyphenyl)-1H-1,2,4-triazole]
